# Reference: US9879011B2, “Amorphous form of linagliptin and process for preparation thereof” (CADILA HEALTHCARE LIMITED, priority 2012, dated 2018)
# Experiment: storage stability of amorphous form (polymorphic form by x-ray powder diffraction)
# Type: physicochemical
# Details: amorphous form dried under vacuum at about 50° C. to 70° C.; ordinary stability conditions (75% RH at 40° C. or 60% RH at 25° C.); no change in polymorphic form by XRPD
# Method: The obtained linagliptin may be dried under vacuum at about 50° C. to 70° C. for 6-12 hours to get amorphous form substantially free from residual solvents. Thus obtained amorphous linagliptin is stable under ordinary stability conditions at least for 3 months and doesn't change to crystalline form.
# The stable amorphous form of linagliptin may be stored under nitrogen atmosphere and packed in a double polythene bag tied with a thread, keeping primary packing containing amorphous linagliptin inside a black color polyethylene bag containing oxygen busters and sealing it, placing above the double polyethylene bag inside a triple laminated bag optionally containing oxygen busters and sealing it, and placing the sealed triple laminated bag inside a closed high density polyethylene (HDPE) container and storing in controlled environment chamber at about 25° C. and/or 40° C.
# The X-ray powder diffraction spectrum was measured under the following experimental conditions: • Instrument: X-Ray Diffractometer, D/Max-2200/PC Make: Rigaku, Japan. • X-Ray: Cu/40 kv/40 mA • Diverging: 10 • Scattering Slit: 10 • Receiving Slit: 0.15 mm • Monochromator RS: 0.8 mm • Counter: Scintillation Counter • Scan Mode: Continuous • Scan Speed: 3.0000/Min • Sampling Width: 0.020 • Scan Axes: Two Theta/Theta • Scan Range: 2.0000 to 40.0000 • Theta Offset: 0.0000
smiles,measurement,value
"CC#CCn1c(N2CCC[C@@H](N)C2)nc2c1c(=O)n(Cc1nc(C)c3ccccc3n1)c(=O)n2C [amorphous linagliptin, 8-[(R)-3-aminopiperidin-1-yl]-7-(but-2-yn-1-yl)-3-methyl-1-[(4-methyl-quinazolin-2-yl)methyl]-3,7-dihydro-1H-purine-2,6-dione]","stable under ordinary stability conditions, doesn't change to crystalline form",≥ 3 months
